Experimental data taken from patent publication US20250051300A1, “GRAM-NEGATIVE SPECIFIC ANTIBIOTICS SPARING EFFECT ON GUT MICROBIOME” (THE BOARD OF TRUSTEES OF THE UNIVERSITY OF ILLINOIS, priority 2021, published 2025).
Values after ≈ are worked out from the molar mass of the structure shown. Read-outs that look alike come from different tables or passages of the source.

Columns and labels:
[1] = system: Klebsiella pneumoniae; experiment: MIC, micro-dilution broth method (CLSI); format: cell-based; details: Klebsiella pneumoniae, read-out: MIC
[2] = system: Escherichia coli; experiment: Resistance frequency, large inoculum method; format: cell-based
Method: Selection of resistant mutants. Resistant mutants were selected using the large inoculum method. Briefly, E. coli BW25113, K. pneumoniae ATCC 27736, or E. cloacae ATCC 29893 (˜1.0×10^7 c.f.u.) was plated on 100-mm plates of Luria Bertani agar containing 8, 16, 32, or 64 μg/mL, lolamycin. For E. coli ΔtolC (JW5503), ˜1.0×10^7 c.f.u. was plated on 100-mm plates of Luria Bertani agar containing 0.063, 0.13, 0.25, 0.5 μg/mL lolamycin. Colonies were visible after incubating at 37° C. for 48 h. Resistant colonies were confirmed by growing colonies in selective media with the same concentration of lolamycin.

[3] = Mouse maximum tolerated dose / tolerability; format: in vivo
Method: Mouse maximum tolerated dose (MTD) of compound 2 and lolamycin. […] In these studies, 10- to 12-week-old female C57BL/6 mice purchased from Charles River Laboratories were used. The maximum tolerated dose (MTD) of a single compound via IP injection was determined first. Compound 2 and lolamycin were formulated in 50% DMSO, 50% PEG400. Compound 2 and lolamycin were given by intraperitoneal (IP) injection. All the mice were monitored for signs of toxicity for 2 weeks. For multiple doses, the compound was given by daily IP injection for 5 consecutive days and the mice were monitored for signs of toxicity for 1 month. The MTD was the highest dosage with acceptable toxicity (for example, <20% weight loss).
Next, the MTD of lolamycin via oral gavage was determined. Lolamycin was formulated in 20% DMSO, 30% Water, and 50% PEG400. Lolamycin was given via oral gavage. All the mice were monitored for signs of toxicity for 2 weeks. For multiple doses, compound was given twice daily orally for 3 consecutive days and the mice were monitored for signs of toxicity. The MTD was the highest dosage with acceptable toxicity (for example, <20% weight loss). […] The MTD of lolamycin was used to inform the dosing schedule used in subsequent efficacy studies.

[4] = system: E. coli AR0349; experiment: Bacterial sepsis survival model; format: in vivo, CD-1 mice
[5] = system: clinical isolates of E. coli, K. pneumoniae, and E. cloacae; experiment: Susceptibility of panel of multidrug-resistant clinical isolates; details: MDR clinical isolates of E. coli

For `Cc1cc(-c2c[nH]nc2-c2cccc(OCc3cccc(C#N)c3)c2)cc(C)n1` [Compound 12, 3-((3-(4-(2,6-dimethylpyridin-4-yl)-1H-pyrazol-3-yl)phenoxy)methyl)benzonitrile], the MIC ([1]; K. pneumoniae AR0041) was 0.5 µg/mL (≈ 1.31 µM), the MIC ([1]; K. pneumoniae AR0042) was 4 µg/mL (≈ 10.5 µM) and the MIC ([1]; K. pneumoniae AR0043) was 0.5 µg/mL (≈ 1.31 µM). It also gave an MIC ([1]; K. pneumoniae AR0044) of 0.5 µg/mL (≈ 1.31 µM), an MIC ([1]; K. pneumoniae AR0046) of 2 µg/mL (≈ 5.26 µM) and an MIC ([1]; K. pneumoniae AR0047) of 4 µg/mL (≈ 10.5 µM). For the same compound, the MIC ([1]; K. pneumoniae AR0049) was 8 µg/mL (≈ 21 µM), the MIC ([1]; K. pneumoniae AR0066) was 4 µg/mL (≈ 10.5 µM) and the MIC ([1]; K. pneumoniae AR0068) was 4 µg/mL (≈ 10.5 µM). For the same compound, the MIC ([1]; K. pneumoniae AR0075) was 1 µg/mL (≈ 2.63 µM), the MIC ([1]; K. pneumoniae AR0076) was 0.5 µg/mL (≈ 1.31 µM) and the MIC ([1]; K. pneumoniae AR0079) was 2 µg/mL (≈ 5.26 µM). The MIC ([1]; K. pneumoniae AR0080) was 0.5 µg/mL (≈ 1.31 µM), the MIC ([1]; K. pneumoniae AR0087) was 2 µg/mL (≈ 5.26 µM) and the MIC ([1]; K. pneumoniae AR0098) was 4 µg/mL (≈ 10.5 µM). It also gave an MIC ([1]; K. pneumoniae AR0106) of 2 µg/mL (≈ 5.26 µM), an MIC ([1]; K. pneumoniae AR0107) of 0.25 µg/mL (≈ 0.657 µM) and an MIC ([1]; K. pneumoniae AR0109) of 8 µg/mL (≈ 21 µM). The MIC ([1]; K. pneumoniae AR0112) was 4 µg/mL (≈ 10.5 µM), the MIC ([1]; K. pneumoniae AR0113) was 2 µg/mL (≈ 5.26 µM) and the MIC ([1]; K. pneumoniae AR0115) was 8 µg/mL (≈ 21 µM). For the same compound, the MIC ([1]; K. pneumoniae AR0117) was 4 µg/mL (≈ 10.5 µM), the MIC ([1]; K. pneumoniae AR0120) was 2 µg/mL (≈ 5.26 µM) and the MIC ([1]; K. pneumoniae AR0125) was 4 µg/mL (≈ 10.5 µM). For the same compound, the MIC ([1]; K. pneumoniae AR0126) was 0.5 µg/mL (≈ 1.31 µM), the MIC ([1]; K. pneumoniae AR0129) was 4 µg/mL (≈ 10.5 µM) and the MIC ([1]; K. pneumoniae AR0135) was 2 µg/mL (≈ 5.26 µM). For the same compound, the MIC ([1]; K. pneumoniae AR0138) was 1 µg/mL (≈ 2.63 µM), the MIC ([1]; K. pneumoniae AR0139) was 2 µg/mL (≈ 5.26 µM) and the MIC ([1]; K. pneumoniae AR0140) was 2 µg/mL (≈ 5.26 µM). For the same compound, the MIC ([1]; K. pneumoniae AR0141) was 0.5 µg/mL (≈ 1.31 µM), the MIC ([1]; K. pneumoniae AR0142) was 0.5 µg/mL (≈ 1.31 µM) and the MIC ([1]; K. pneumoniae AR0143) was 4 µg/mL (≈ 10.5 µM). For the same compound, the MIC ([1]; K. pneumoniae AR0145) was 2 µg/mL (≈ 5.26 µM), the MIC ([1]; K. pneumoniae AR0146) was 2 µg/mL (≈ 5.26 µM) and the MIC ([1]; K. pneumoniae AR0148) was 4 µg/mL (≈ 10.5 µM). It also gave an MIC ([1]; K. pneumoniae AR0152) of 0.5 µg/mL (≈ 1.31 µM), an MIC ([1]; K. pneumoniae AR0153) of 4 µg/mL (≈ 10.5 µM) and an MIC ([1]; K. pneumoniae AR0158) of 8 µg/mL (≈ 21 µM). The MIC ([1]; K. pneumoniae AR0160) was 0.5 µg/mL (≈ 1.31 µM), the MIC ([1]; K. pneumoniae AR0347) was 8 µg/mL (≈ 21 µM) and the MIC ([1]; K. pneumoniae AR0542) was 2 µg/mL (≈ 5.26 µM). For the same compound, the MIC ([1]; K. pneumoniae AR0548) was 2 µg/mL (≈ 5.26 µM), the MIC ([1]; K. pneumoniae AR0550) was 2 µg/mL (≈ 5.26 µM) and the MIC ([1]; K. pneumoniae AR0552) was 4 µg/mL (≈ 10.5 µM). For the same compound, the MIC ([1]; K. pneumoniae AR0553) was 0.5 µg/mL (≈ 1.31 µM), the MIC ([1]; K. pneumoniae AR0554) was 4 µg/mL (≈ 10.5 µM) and the MIC ([1]; K. pneumoniae AR0555) was 2 µg/mL (≈ 5.26 µM). The MIC ([1]; K. pneumoniae AR-0040) was 1 µg/mL (≈ 2.63 µM), the resistance frequency ([2]; E. coli ΔtolC JW5503, 32×MIC) was 1.8×10^−8 and the resistance frequency ([2]; wild-type E. coli BW25113, 8×MIC) was 3.4×10^−7. For the same compound, the tolerability ([3]; C57BL/6 mice, daily dosing of 200 mg/kg for 5 consecutive days, IP) was “well tolerated”, the tolerability ([3]; C57BL/6 mice, single dose of 200 mg/kg, IP) was “well tolerated” and the tolerability ([3]; mice, 100 mg/kg twice a day for three days, IP) was “well-tolerated”. The tolerability ([3]; mice, 200 mg/kg twice a day for three days, oral gavage, listed as Lolamycin, 200 mg/kg) was “well tolerated”, the tolerability ([3]; mice, 200 mg/kg twice a day for three days, oral gavage, listed as lolamycin, 200 mg/kg) was “well-tolerated” and the “mice with septic infection rescued (survival)” value ([4]; 100 mg/kg IP twice daily for 3 days) was 100%. The “mice with septic infection rescued (survival)” value ([4]; 200 mg/kg PO twice daily for 3 days) was “over 70%”, the “concentration that kills 50% of the strains” value [5] was about 2 µg/mL and the “concentration that kills 90% of the strains” value [5] was about 8 µg/mL.
